The values below come from article PMC2922422 (Neuropsychopharmacology : official publication of the …, 2010).

Structures are written as SMILES. Structures can show the parent of a compound that is named as a salt.

Data set [1] concerns Wistar rats. Put plainly: cue-induced reinstatement of cocaine-seeking behavior.
Data set [2] in a line: plasma pharmacokinetics after i.p. administration. Format: in vivo. The conditions noted are these: rat, mean ± SD.
The subject of data set [3] is Wistar rats. Put plainly: cue-induced reinstatement of food-seeking behavior. As to conditions: food-responding rats; 10, 20, 40 mg/kg i.p., between-subjects.
In data set [4] the test system is Wistar rats. Put plainly: intracranial self-stimulation. Format: in vivo, rat.
The target in the next data set is rat mGluR3 (Rattus norvegicus, UniProt P31422). Put plainly: thallium flux assay, mGluR3 GIRK HEK-293 cells. It counts as cell-based. As to conditions: in presence of EC20 glutamate.
rat mGluR3, sequence (P31422 23-879): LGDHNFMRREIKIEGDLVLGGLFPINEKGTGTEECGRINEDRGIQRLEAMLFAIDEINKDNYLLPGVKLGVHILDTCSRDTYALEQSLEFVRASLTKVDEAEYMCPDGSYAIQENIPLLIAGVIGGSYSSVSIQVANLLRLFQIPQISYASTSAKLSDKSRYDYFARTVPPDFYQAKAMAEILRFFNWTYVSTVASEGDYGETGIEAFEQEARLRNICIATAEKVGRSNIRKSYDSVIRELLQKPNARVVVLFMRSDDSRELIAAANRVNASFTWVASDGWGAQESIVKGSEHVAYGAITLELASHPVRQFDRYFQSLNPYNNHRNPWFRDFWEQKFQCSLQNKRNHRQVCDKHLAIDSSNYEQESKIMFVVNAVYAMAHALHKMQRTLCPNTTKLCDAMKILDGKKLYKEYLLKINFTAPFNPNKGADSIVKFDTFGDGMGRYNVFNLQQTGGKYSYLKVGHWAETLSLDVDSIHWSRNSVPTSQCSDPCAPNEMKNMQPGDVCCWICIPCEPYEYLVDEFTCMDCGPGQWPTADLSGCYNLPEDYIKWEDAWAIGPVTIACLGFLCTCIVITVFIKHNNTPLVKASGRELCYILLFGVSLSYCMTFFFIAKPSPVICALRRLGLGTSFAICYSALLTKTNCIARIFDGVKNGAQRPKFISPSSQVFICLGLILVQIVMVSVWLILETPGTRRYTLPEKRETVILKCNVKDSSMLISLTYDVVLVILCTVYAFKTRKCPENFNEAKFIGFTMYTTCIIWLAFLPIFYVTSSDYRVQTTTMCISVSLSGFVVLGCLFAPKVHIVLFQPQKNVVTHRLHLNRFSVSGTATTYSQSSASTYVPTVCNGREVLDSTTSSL
The subject of data set [5] is Wistar rats. Put plainly: food-maintained responding. The conditions noted are these: food-restricted rats, 1 h session.
Data set [6] is described as follows: brain and plasma levels 1 h after administration. It counts as in vivo. The conditions noted are these: rat, geometric mean (lower – upper limits).
Data set [7] has as its system Wistar rats. Put plainly: intravenous cocaine self-administration, short. The conditions noted are these: for inactive lever presses: cocaine self-administration; for cocaine self-administration (infusions earned, % of baseline): 30 min pretreatment, vs vehicle.
The test system of a further data set is ShA rats. The conditions noted are these: 3 mg/kg, ref Baptista et al 2004; cited from earlier work.

As a reminder, the Cmax is the peak of the concentration-time curve. With `Cc1c(OCc2cccc(-c3ccc(C(=O)[O-])cc3)c2)cc2c(c1C)C(=O)C(C1CCCC1)C2.[K+]` (centres unmarked) [BINA, potassium 3′-([2-cyclopentyl-6-7-dimethyl-1-oxo-2,3-dihydro-1H-inden-5yloxy]methyl)biphenyll-4-carboxylate], the “active lever presses in reinstatement sessions” value in the data set on Wistar rats [1] (non-reinstated sub-groups of ShA and LgA rats (median split), 10-40 mg/kg i.p.) is listed as “no effect of BINA treatment”. Besides, the “cue-induced reinstatement of cocaine-seeking behavior” value in the data set with Wistar rats [1] (three ShA rats reinstating by predefined criterion) is “tended to reduce cue-induced reinstatement”. In data set [2] (20 mg/kg i.p.), this compound gave an AUC of 31 ± 5.0 h μM/L, a Cmax of 9.3 ± 2.7 µM and a Vd of 5.9 ± 2.6 L/kg. In data set [2] (40 mg/kg i.p.), the AUC is listed as 114 ± 42 h μM/L, the peak level (Cmax) was 31 ± 14 µM and the Vd amounted to 1.7 ± 0.68 L/kg. For the same compound, the “cue-induced food seeking (active lever presses)” value in the data set on Wistar rats [3] is given as “no effect on the number of active lever presses”. Further, in the data set on Wistar rats [4] (20 mg/kg i.p. combined with cocaine 10 mg/kg i.p.), the “cocaine-induced decrease in ICSS response latencies” value is on record as “reversed the cocaine-induced decrease in response latencies”. Moreover, in the data set on Wistar rats [4] (40 mg/kg i.p. vs vehicle), the ICSS response latencies entry is given as “significantly increased”. In addition, the “cocaine-induced ICSS threshold lowering” value in the data set with Wistar rats [4] (20 and 40 mg/kg i.p. combined with cocaine 10 mg/kg i.p.) is reported as “attenuated cocaine-induced threshold lowering”. Moreover, the ICSS reward thresholds entry in the data set on Wistar rats [4] (administered alone, 20 and 40 mg/kg i.p.) was “significantly elevated reward thresholds”. Further, the “potentiation of the glutamate EC20 response” value on rat mGluR3 is “inactive”. For the same compound, the food-maintained responding result with Wistar rats [5] (10, 20, 40 mg/kg i.p.) is reported as “no effect on food responding”. In [6] (20 mg/kg), the “Brain level (mean)” value is 2.78 (0.65 – 6.39) μM and the “Plasma level (mean)” value is given as 10.54 (0.79 – 25.48) μM. Moreover, in data set [6] (40 mg/kg), the “Brain level (mean)” value is on record as 2.30 (0.62 – 5.54) μM and the “Plasma level (mean)” value is 7.79 (0.81 – 16.98) μM. In addition, the inactive lever presses result with Wistar rats [7] (10, 20, 40 mg/kg i.p.) was “no effect on inactive lever presses”.

On to `COC(=O)[C@H]1[C@@H](OC(=O)c2ccccc2)C[C@@H]2CC[C@H]1N2C` [Cocaine, Cocaine hydrochloride, reference compound], for which the ICSS reward thresholds result in the data set with Wistar rats [4] (10 mg/kg i.p., co-administered with vehicle or 10 mg/kg BINA) is recorded as “significantly lowered ICSS thresholds”.

Turning to `N[C@@]1(C(=O)O)CO[C@H]2[C@H](C(=O)O)[C@H]21` [LY379268, [−]-2-oxa-4-aminobicyclo[3.1.0]hexane-4,6-dicarboxylate], in the data set with ShA rats, the cocaine self-administration result is “decreased cocaine self-administration”. Besides, in the data set on Wistar rats [5] (6 mg/kg), the food-maintained responding entry is listed as “significantly decreased food responding”. For the same compound, the “cocaine self-administration (infusions earned, % of baseline)” value in the data set on Wistar rats [7] (LgA rats, 6 h session and first hour, 6 mg/kg) was “significant decrease in cocaine intake”; with Wistar rats [7] (ShA rats, 1 h session, 3 and 6 mg/kg) it was “significant decrease in cocaine intake”. The inactive lever presses result with Wistar rats [7] (0.3, 1, 3, 6 mg/kg) was “no effect on inactive lever presses”.
